Experimental findings from patent US9603889B2, “IAP antagonists” (BRISTOL-MYERS SQUIBB COMPANY, priority 2012, dated 2017) are described below.

Structures are written as SMILES. Counter-ions that a name gives are not always drawn.

Broadly, the IC50 is the point on the concentration scale where inhibition reaches its midpoint.

For the experiment, the target named is XIAP BIR3 (N-His-Tb-BIR3(241-356, XIAP)) (Homo sapiens (Human), UniProt P98170). Type of experiment: binding. Particulars: 130 nM N-His-Tb-BIR3(241-356, XIAP), 1.4 nM fluoresceinated modified SMAC peptide, 60 minutes room temperature; read-out: XIAP BIR3 FPA IC50.
XIAP BIR3 (N-His-Tb-BIR3(241-356, XIAP)), sequence (P98170 241-356): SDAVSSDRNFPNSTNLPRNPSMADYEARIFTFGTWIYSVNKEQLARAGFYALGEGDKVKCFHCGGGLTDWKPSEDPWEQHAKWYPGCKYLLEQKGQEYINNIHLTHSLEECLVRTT
Take `CN[C@@H](C)C(=O)N[C@H](C(=O)N1Cc2ccccc2CC1C(=O)N(CC1(C(=O)NC2C[C@@H](C(=O)NC3CCCc4ccccc43)N(C(=O)[C@@H](NC(=O)[C@H](C)NC)C(C)(C)C)C2)CC1)[C@@H](COC)c1ccccc1)C(C)(C)C` (stereo partly drawn) [Example 38, (S)-2-((S)-3,3-Dimethyl-2-((S)-2-(methylamino)propanamido)butanoyl)-N-((1-(((3S,5S)-1-((S)-3,3-dimethyl-2-((S)-2-(methylamino)propanamido)butanoyl)-5-(((R)-1,2,3,4-tetrahydronaphthalen-1-yl)carbamoyl)pyrrolidin-3-yl)carbamoyl)cyclopropyl)methyl)-N-((S)-2-methoxy-1-phenylethyl)-1,2,3,4-tetrahydroisoquinoline-3-carboxamide, 2 TFA]: the IC50 was 0.06 µM. Under `CN[C@@H](C)C(=O)N[C@H](C(=O)N1C[C@@H](NC(=O)CCCN(C(=O)[C@@H]2Cc3ccccc3CN2C(=O)[C@@H](NC(=O)[C@H](C)NC)C(C)(C)C)[C@H](C)c2ccccc2F)C[C@H]1C(=O)N[C@@H]1CCCc2ccccc21)C(C)(C)C` [Example 41, (S)-2-((S)-3,3-Dimethyl-2-((S)-2-(methylamino)propanamido)butanoyl)-N-(4-(((3S,5S)-1-((S)-3,3-dimethyl-2-((S)-2-(methylamino)propanamido)butanoyl)-5-(((R)-1,2,3,4-tetrahydronaphthalen-1-yl)carbamoyl)pyrrolidin-3-yl)amino)-4-oxobutyl)-N-((R)-1-(2-fluorophenyl)ethyl)-1,2,3,4-tetrahydroisoquinoline-3-carboxamide] stands 0.06 µM; under `CN[C@@H](C)C(=O)N[C@H](C(=O)N1CC(NC(=O)C2CC2CN(C(=O)[C@@H]2Cc3ccccc3CN2C(=O)[C@@H](NC(=O)[C@H](C)NC)C(C)(C)C)[C@H](C)c2ccccc2F)C[C@H]1C(=O)NC1CCCc2ccccc21)C(C)(C)C` (stereo partly drawn) [Example 42, (3S)-2-((S)-3,3-Dimethyl-2-((S)-2-(methylamino)propanamido)butanoyl)-N-((2-(((3S,5S)-1-((S)-3,3-dimethyl-2-((S)-2-(methylamino)propanamido)butanoyl)-5-(((R)-1,2,3,4-tetrahydronaphthalen-1-yl)carbamoyl)pyrrolidin-3-yl)carbamoyl)cyclopropyl)methyl)-N-((R)-1-(2-fluorophenyl)ethyl)-1,2,3,4-tetrahydroisoquinoline-3-carboxamide], 0.07 µM; under `CN[C@@H](C)C(=O)N[C@H](C(=O)N1C[C@@H](NC(=O)C2(CN(C(=O)[C@@H]3Cc4ccccc4CN3C(=O)[C@@H](NC(=O)[C@H](C)NC)C(C)(C)C)[C@H](C)c3cccc(F)c3F)CC2)C[C@H]1C(=O)N[C@@H]1CCCc2ccccc21)C(C)(C)C` [Example 43, (S)-N-((R)-1-(2,3-Difluorophenyl)ethyl)-2-((S)-3,3-dimethyl-2-((S)-2-(methylamino)propanamido)butanoyl)-N-((1-(((3S,5S)-1-((S)-3,3-dimethyl-2-((S)-2-(methylamino)propanamido)butanoyl)-5-(((R)-1,2,3,4-tetrahydronaphthalen-1-yl)carbamoyl)pyrrolidin-3-yl)carbamoyl)cyclopropyl)methyl)-1,2,3,4-tetrahydroisoquinoline-3-carboxamide], 0.18 µM.
